The species entered for experiment [1] is Rattus norvegicus. Kind of experiment: Inhibition of meperidine-induced antinociceptive activity in rat by D'Amour-Smith thermal stimulus test. The class given is functional.
Experiment [2] is filed under the species Rattus norvegicus. Kind of experiment: Antinociceptive activity in rat assessed as protection from p-phenylquinone-induced writhing. It counts as functional. In general terms: In writhing tests, fewer writhes than in controls are read as antinociception.
For experiment [3], the system named is Rattus norvegicus. Briefly: Antinociceptive activity in rat at 120 mg/kg, sc by D'Amour-Smith thermal stimulus test. It counts as functional, organism-based. Set-up: dose 120 mg/kg.
Experiment [4] deals with Rattus norvegicus. Kind of experiment: Inhibition of meperidine-induced antinociceptive activity in rat at 80 mg/kg, sc by D'Amour-Smith thermal stimulus test. It counts as functional, organism-based. Set-up: dose 80 mg/kg.
Experiment [5] deals with Rattus norvegicus. Kind of experiment: Antinociceptive activity in rat assessed as protection from p-phenylquinone-induced writhing at 100 mg/kg, sc. It counts as functional, organism-based. More on the design: dose 100 mg/kg.
The subject of experiment [6] is Rattus norvegicus. Briefly: Inhibition of meperidine-induced antinociceptive activity in rat at 40 mg/kg, sc by D'Amour-Smith thermal stimulus test. The class given is functional, organism-based. Set-up: dose 40 mg/kg.
The subject of experiment [7] is Rattus norvegicus. Briefly: Antinociceptive activity in rat at 60 mg/kg, sc by D'Amour-Smith thermal stimulus test. The class given is functional, organism-based. Set-up: dose 60 mg/kg.

By ED50 is commonly meant the midpoint of the dose-response relation.

Activity calls are given as the source filed them. No cut-off for these calls is given here.

In experiment [1], `C/C(=C\CN1CC[C@@]2(C)c3cc(O)ccc3C[C@@H]1[C@@H]2C)CO` (racemic) returned an AD50 greater than 320 mg/kg. Further, the ED50 in experiment [2] worked out at 37 mg/kg.
Consider `CCOC(=O)CN1CC[C@@]2(C)c3cc(O)ccc3C[C@@H]1[C@@H]2C` (racemic), for which the outcome in experiment [3] was inactive. The compound also gave an AD50 in experiment [1] of 66 mg/kg.
Regarding `CC(=O)CCN1CC[C@@]2(C)c3cc(O)ccc3C[C@@H]1[C@@H]2C` (racemic), in experiment [3], the outcome was inactive. This compound also returned an AD50 in experiment [1] of 1.7 mg/kg. The ED50 in experiment [2] is 22 mg/kg.
Take `C[C@H]1[C@H]2Cc3ccc(O)cc3[C@]1(C)CCN2CCC(C)(C)O` (racemic): the inhibition result in experiment [4] is “inactive”. In experiment [3], the outcome was inactive. For the same compound, in experiment [2], the ED50 turned out to be 37 mg/kg.
On to `CC(C)C(=O)CN1CC[C@@]2(C)c3cc(O)ccc3C[C@@H]1[C@@H]2C` (racemic), for which the AD50 in experiment [1] was determined as 2.8 mg/kg.
`C/C(=C\CN1CC[C@@]2(C)c3cc(O)ccc3C[C@@H]1[C@@H]2C)C(=O)O` (racemic): the result in experiment [5] was inactive. For the same compound, the AD50 result in experiment [1] was “inactive”.
As for `C[C@H]1[C@H]2Cc3ccc(O)cc3[C@]1(C)CCN2CC(=O)O` (racemic), the inhibition entry in experiment [6] was “inactive”. Moreover, the result in experiment [7] was inactive.
Regarding `CC(C)=CCN1CC[C@]2(C)c3cc(O)ccc3C[C@H]1[C@H]2C` [(+)-PENTAZOCINE], in experiment [3], the result was inactive. Besides, the AD50 in experiment [1] worked out at 3.9 mg/kg. In addition, the ED50 in experiment [2] was found to be 2.3 mg/kg.

The record behind these values is ChEMBL document CHEMBL3244356, “Synthesis of some pentazocine metabolites and related compounds” (1977).
